# Assay results published in US20200087625A1, “METHODS FOR ISOLATING, EXPANDING AND ADMINISTERING CANCER SPECIFIC CD8+ T CELLS” (priority 2017, published 2020).
# What was measured:
# [1] = cited from earlier work
# 4T1 cells [2] = assay: Ex vivo tumor-specific cytotoxicity study; format: cell-based, BALB/c mice; conditions: effector to target cell ratio 16:1; vs vehicle
# Method: FIGS. 23A-23G. Systemic administration of […] induces tumor-specific CD8^+ T cells. (A) Protocol of IV metastasis model. (B) BALB/c mice (n=B-15/group) were i.v. injected with 4T1 cells (2×10^4) on day 0.1V270 (2, 20, or 200 μg/injection) was i.p. administered on days −1, 7, 10, and 14. The numbers of lung nodules were counted on day 21. (C) 200 μg/injection 1V270 was i.p. administered on days −1 or 0 followed by days 7, 10, and 14 where indicated. The numbers of lung nodules were counted on day 21. […] Intracellular granzyme B (D) and IFNγ (E) were analyzed by flow cytometry. […] The percent specific killing was calculated. Data were analyzed by two-way ANOVA using a Bonferroni post hoc test comparing treatment groups against vehicle group. *P<0.05. […]
# Tumor-specific cytotoxicity was examined using 4T1 cells as target cells and BALB/3T3 cells as irrelevant cells. […] The frequencies of 4T1 (CFSE high) and BALB/3T3 (CFSE low) cells were determined by flow cytometry, and the percent specific killing was calculated. […]
# To examine the role of CD8^+ T cells after systemic 1V270 treatment, mediastinal lymph node (mLN) cells, splenocytes, and lung tissues were analyzed in the IV metastasis model on day 21 (FIGS. 23D-2G). Activation of CD8^+ T cells was assessed by intracellular staining for granzyme B and interferon γ (IFNγ). […]
# 4T1 cells [3] = assay: IV (experimental) lung metastasis model of 4T1 breast cancer; format: in vivo, BALB/c mice
smiles,measurement,setting,value
CCCCCCCCC=CCCCCCCCC(=O)OCC(COP(=O)(O)OCCNC(=O)c1ccc(Cn2c(=O)[nH]c3c(N)nc(OCCOC)nc32)cc1)OC(=O)CCCCCCCC=CCCCCCCCC (stereo not drawn) [1V270],systemic cytokine release after intranasal administration,[1],without inducing systemic cytokine release
same,tumor-specific cytotoxicity of CD8+ T cells,4T1 cells [2],significantly higher tumor-specific cytotoxicity
same,lung metastasis after a single administration,"4T1 cells [3]; 200 μg i.p., 1 day prior to tumor inoculation",sufficient to inhibit lung metastasis
same,lung metastasis (number of lung nodules),"4T1 cells [3]; 1V270 2, 20 or 200 μg/injection i.p. days -1, 7, 10, 14, counted day 21",inhibited lung metastasis in a dose-dependent manner
same,lowest effective dose,"4T1 cells [3]; i.p., inhibition of lung metastasis",20 µg
same,number of lung nodules,"4T1 cells [3]; intranasal 20 or 200 μg/50 μL on days -3, -1, 3, 7, 10",inhibited the number of lung nodules in a dose-dependent manner
